Tests used:
[1] = Inhibition of Neisseria meningitidis MTAN assessed as reduction in methylthioadenosine phosphorolysis/hydrolysi
[2] = Inhibition of Escherichia coli MTAN assessed as reduction in methylthioadenosine phosphorolysis/hydrolysis
[3] = biological target: T1, S-methyl-5'-thioadenosine phosphorylase (Homo sapiens, UniProt Q13126); experiment: Inhibition of human MTAP assessed as reduction in methylthioadenosine phosphorolysis/hydrolysis
T1 sequence (Q13126 whole entry): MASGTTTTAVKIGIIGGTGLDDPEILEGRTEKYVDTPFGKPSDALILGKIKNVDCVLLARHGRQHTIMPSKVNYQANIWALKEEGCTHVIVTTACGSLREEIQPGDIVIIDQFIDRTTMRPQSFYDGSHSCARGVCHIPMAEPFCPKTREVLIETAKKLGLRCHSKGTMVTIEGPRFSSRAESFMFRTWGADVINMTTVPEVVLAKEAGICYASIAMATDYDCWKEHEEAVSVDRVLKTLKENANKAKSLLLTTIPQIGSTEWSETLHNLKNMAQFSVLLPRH

Escherichia coli = experiment: Ratio of Km to Ki for Escherichia coli MTAN assessed as reduction in methylthioadenosine phosphorolysis/hydrolysis

SMILES	Ki [1] [nM]	Ki [2] [nM]	Ki [3] [nM]	Ratio (Escherichia coli)
CSCC(CO)(CO)NCc1c[nH]c2c(N)ncnc12	4	5.8	–	–
CSC[C@@H](O)[C@H](CO)NCc1c[nH]c2c(N)ncnc12	–	–	34	–
CSC[C@H](CO)N[C@H](CO)c1c[nH]c2c(N)ncnc12	47	1720	–	–
CSC[C@H](O)[C@@H](CO)CN(C)Cc1c[nH]c2c(N)ncnc12 (racemic)	132	401	105	–
CSCC(CO)CNCc1c[nH]c2c(N)ncnc12 (racemic)	1.2	0.36	10	–
CSC[C@H]1N[C@@H](c2c[nH]c3c(N)ncnc23)[C@H](O)[C@@H]1O	0.36	0.08	–	–
CSC[C@H](CO)NCc1c[nH]c2c(N)ncnc12	–	–	34	–
CSC[C@H](O)[C@@H](O)CN(C)Cc1c[nH]c2c(N)ncnc12 (racemic)	85	202	368	–
CSC[C@H](O)[C@@H](CO)NCc1c[nH]c2c(N)ncnc12	–	–	87	–
CSC[C@@H](O)CNCc1c[nH]c2c(N)ncnc12	36	40	602	–
CSC[C@H]1CN(Cc2c[nH]c3c(N)ncnc23)C[C@@H]1O	0.14	–	–	–
CSCC(CO)NCc1c[nH]c2c(N)ncnc12 (racemic)	0.8	–	12	–
CSC[C@@H](CO)NCc1c[nH]c2c(N)ncnc12	–	–	4.4	1200
CSC[C@@H](O)[C@@H](CO)NCc1c[nH]c2c(N)ncnc12	–	–	5.2	–
CSC[C@@H](CN(C)Cc1c[nH]c2c(N)ncnc12)[C@@H](O)CO (racemic)	61	2300	12	19
CSC[C@@H](CNCc1c[nH]c2c(N)ncnc12)[C@@H](O)CO (racemic)	5	9	34	–
